Experimental data as given in patent US8501728B2, “Substituted heteroarylamide oxazepinopyrimidone derivatives” (priority 2008, dated 2013).
Like-named read-outs stand apart in the source and are kept apart here.

Target: T1, commercial GSK3beta (Millipore) (Homo sapiens, UniProt P49841)
T1 construct: purchased Millipore
Test: biochemical
Method: In a fourth protocol: 7.5 μM of prephosphorylated GS1 peptide and 10 μM ATP (containing 300,000 cpm of ^33P-ATP) were incubated in 50 mM Hepes, pH 7.2, 1 mM DTT, 1 mM MgCl2, 1 mM EGTA, 0.01% Tween 20 buffer for 90 minutes at room temperature in the presence of commercial GSK3beta (Millipore) (total reaction volume: 100 microliters).
Inhibitors were solubilised in DMSO (final solvent concentration in the reaction medium, 1%).
The reaction was stopped with 100 microliters of a solution made of 25 g polyphosphoric acid (85% P2O5), 126 ml 85% H3PO4, H2O to 500 ml and then diluted to 1:100 before use. An aliquot of the reaction mixture was then transferred to Whatman P81 cation exchange filters and rinsed with the solution described above. Incorporated ^33P radioactivity was determined by liquid scintillation spectrometry.
(Woodgett, J. R. (1989) Analytical Biochemistry 180, 237-241.

[1] = protocol 4: 7.5 μM GS1 peptide, 10 μM ATP, 90 minutes at room temperature, read-out: GSK3β inhibitory activity IC50

T1 sequence (P49841 whole entry): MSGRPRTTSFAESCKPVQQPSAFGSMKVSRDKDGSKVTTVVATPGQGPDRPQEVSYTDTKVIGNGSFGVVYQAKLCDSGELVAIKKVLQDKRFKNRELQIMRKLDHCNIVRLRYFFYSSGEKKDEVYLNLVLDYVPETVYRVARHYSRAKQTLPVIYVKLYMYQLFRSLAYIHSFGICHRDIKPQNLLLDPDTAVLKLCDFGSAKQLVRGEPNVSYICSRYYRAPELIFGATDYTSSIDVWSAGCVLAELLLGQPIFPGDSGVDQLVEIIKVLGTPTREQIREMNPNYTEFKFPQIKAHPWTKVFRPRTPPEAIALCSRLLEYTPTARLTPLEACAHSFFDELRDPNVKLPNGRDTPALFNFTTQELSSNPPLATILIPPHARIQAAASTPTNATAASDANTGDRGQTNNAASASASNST

IC50 [1] [nM] | SMILES | IC50 [nM]
5 | O=C(NC1COCCn2c1nc(-c1ccncn1)cc2=O)c1cc(F)cc2c1OCOC2 (racemic) [compound 12, (+/−)-6-Fluoro-4H-benzo[1,3]dioxine-8-carboxylic acid (4-oxo-2-pyrimidin-4-yl-5,6,8,9-tetrahydro-4H-7-oxa-1,4-a-diaza-benzocyclohepten-9-yl)-amide] | 
31 | CSc1ncc(Cl)c(C(=O)NC2COCCn3c2nc(-c2ccncn2)cc3=O)n1 (racemic) [compound 15, (+/−)-5-Chloro-2-methylsulfanyl-pyrimidine-4-carboxylic acid (4-oxo-2-pyrimidin-4-yl-5,6,8,9-tetrahydro-4H-7-oxa-1,4-a-diaza-benzocyclohepten-9-yl)-amide] | 
 | O=C(NC1COCCn2c1nc(-c1ccncn1)cc2=O)c1ccccn1 (racemic) [compound 17, (+/−)-Pyridine-2-carboxylic acid (4-oxo-2-pyrimidin-4-yl-5,6,8,9-tetrahydro-4H-7-oxa-1,4-a-diaza-benzocyclohepten-9-yl)-amide] | 15
52 | CSc1ncc(Br)c(C(=O)NC2COCCn3c2nc(-c2ccncn2)cc3=O)n1 (racemic) [compound 18, (+/−)-5-Bromo-2-methylsulfanyl-pyrimidine-4-carboxylic acid (4-oxo-2-pyrimidin-4-yl-5,6,8,9-tetrahydro-4H-7-oxa-1,4-a-diaza-benzocyclohepten-9-yl)-amide] | 
